Laboratory results from ChEMBL document CHEMBL1143211, “Inhibitors of proteases and amide hydrolases that employ an alpha-ketoheterocycle as a key enabling functionality” (Bioorg Med Chem, 2008).
Values after ≈ are worked out from the molar mass of the structure shown. Where a SMILES comes first, the peptide text is derived from it. [ ]: non-standard residue; d: D form. The star is where a group is joined. Pyrazinecarbonyl = O=C(c1cnccn1)*; Hyp = O=C(O)[C@@H]1C[C@@H](O)CN1; Abu = CC[C@H](N)C(=O)O; Bn = c1ccc(C*)cc1

Tests used:
[1] = species: Homo sapiens; assay: Selectivity for human recombinant cathepsin S over human recombinant K
[2] = species: Homo sapiens; assay: Selectivity for human recombinant cathepsin S over human cathepsin B
[3] = species: Homo sapiens; assay: Selectivity for human recombinant cathepsin S over human recombinant L
[4] = Inhibition of Staphylococcus aureus methionine aminopeptidase
[5] = molecular target: Trypsin (Homo sapiens, UniProt P07477+P07478+P35030); assay: Inhibition of human trypsin at 100 uM; assay type: protein assay
[6] = molecular target: Prothrombin (Homo sapiens, UniProt P00734); assay: Inhibition of human alpha-thrombin
[7] = molecular target: Coagulation factor X (Homo sapiens, UniProt P00742); assay: Inhibition of human factor 10a
Coagulation factor X, sequence (P00742 41-179 limits assumed): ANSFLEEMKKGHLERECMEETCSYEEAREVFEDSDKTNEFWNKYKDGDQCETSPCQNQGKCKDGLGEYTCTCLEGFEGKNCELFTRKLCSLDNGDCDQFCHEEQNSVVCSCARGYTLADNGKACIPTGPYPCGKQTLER
Coagulation factor X, sequence (P00742 235-488 limits assumed): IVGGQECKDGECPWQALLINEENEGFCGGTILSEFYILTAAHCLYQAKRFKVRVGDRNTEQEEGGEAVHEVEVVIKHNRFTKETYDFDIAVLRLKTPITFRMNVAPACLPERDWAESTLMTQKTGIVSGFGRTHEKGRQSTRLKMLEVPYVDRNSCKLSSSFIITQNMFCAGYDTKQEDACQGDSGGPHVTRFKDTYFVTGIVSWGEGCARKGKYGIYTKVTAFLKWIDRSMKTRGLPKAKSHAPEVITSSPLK

[8] = molecular target: Coagulation factor VII (Homo sapiens, UniProt P08709); assay: Inhibition of human factor 7a
[9] = molecular target: Proline iminopeptidase (Serratia marcescens, UniProt O32449); assay: Inhibition of Serratia marcescens prolyl aminopeptidase
[10] = Inhibition of Escherichia coli glycinamide ribonucleotide transformylase
[11] = molecular target: Bifunctional purine biosynthesis protein ATIC (Homo sapiens, UniProt P31939); assay: Inhibition of human aminoimidazole carboxamide transformylase
Bifunctional purine biosynthesis protein ATIC, sequence (P31939 whole entry): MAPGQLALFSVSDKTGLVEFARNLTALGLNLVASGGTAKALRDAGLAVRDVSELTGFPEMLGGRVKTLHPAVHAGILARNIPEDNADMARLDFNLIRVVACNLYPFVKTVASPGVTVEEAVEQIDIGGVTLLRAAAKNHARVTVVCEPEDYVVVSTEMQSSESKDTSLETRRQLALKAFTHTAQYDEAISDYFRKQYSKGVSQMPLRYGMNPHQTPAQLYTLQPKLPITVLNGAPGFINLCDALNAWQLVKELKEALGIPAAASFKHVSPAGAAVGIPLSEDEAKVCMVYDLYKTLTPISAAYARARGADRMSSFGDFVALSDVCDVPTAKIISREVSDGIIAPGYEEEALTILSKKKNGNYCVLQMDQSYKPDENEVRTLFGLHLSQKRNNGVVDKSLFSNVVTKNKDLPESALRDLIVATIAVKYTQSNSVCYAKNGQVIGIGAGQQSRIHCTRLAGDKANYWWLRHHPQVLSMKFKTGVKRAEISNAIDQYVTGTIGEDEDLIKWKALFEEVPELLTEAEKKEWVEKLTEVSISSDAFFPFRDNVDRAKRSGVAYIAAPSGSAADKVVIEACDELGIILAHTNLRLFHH

[12] = molecular target: T1, Trifunctional purine biosynthetic protein adenosine-3 (Homo sapiens, UniProt P22102); assay: Inhibition of human glycinamide ribonucleotide transformylase
T1 sequence (P22102 whole entry): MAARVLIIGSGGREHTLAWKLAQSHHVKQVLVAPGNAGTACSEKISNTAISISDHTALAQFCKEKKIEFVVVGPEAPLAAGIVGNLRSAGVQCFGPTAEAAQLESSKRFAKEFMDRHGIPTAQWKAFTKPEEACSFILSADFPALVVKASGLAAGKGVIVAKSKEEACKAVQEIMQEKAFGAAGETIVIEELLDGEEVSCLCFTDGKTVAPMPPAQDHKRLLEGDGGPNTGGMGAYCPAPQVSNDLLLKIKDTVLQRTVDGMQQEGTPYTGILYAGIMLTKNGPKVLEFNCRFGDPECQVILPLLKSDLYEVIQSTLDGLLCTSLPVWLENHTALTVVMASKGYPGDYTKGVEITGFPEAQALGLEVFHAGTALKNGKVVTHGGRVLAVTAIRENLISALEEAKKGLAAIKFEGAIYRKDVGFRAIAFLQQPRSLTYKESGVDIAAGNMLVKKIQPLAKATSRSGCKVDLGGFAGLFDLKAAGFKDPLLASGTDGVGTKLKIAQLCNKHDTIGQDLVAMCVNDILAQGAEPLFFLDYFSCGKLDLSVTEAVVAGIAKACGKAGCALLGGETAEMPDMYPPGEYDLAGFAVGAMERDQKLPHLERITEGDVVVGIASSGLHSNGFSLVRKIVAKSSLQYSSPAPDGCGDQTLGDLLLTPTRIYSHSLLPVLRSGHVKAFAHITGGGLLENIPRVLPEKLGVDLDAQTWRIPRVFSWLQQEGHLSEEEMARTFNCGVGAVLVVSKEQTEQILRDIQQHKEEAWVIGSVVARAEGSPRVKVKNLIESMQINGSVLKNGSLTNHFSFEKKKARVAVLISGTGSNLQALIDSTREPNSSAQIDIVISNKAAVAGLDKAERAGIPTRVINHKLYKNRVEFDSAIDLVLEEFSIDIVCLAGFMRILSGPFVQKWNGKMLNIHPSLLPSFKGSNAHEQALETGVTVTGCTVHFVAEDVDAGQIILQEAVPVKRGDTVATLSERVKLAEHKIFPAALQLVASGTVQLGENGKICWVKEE

[13] = molecular target: Beta-lactamase (Enterobacter cloacae, UniProt P05364); assay: Inhibition of Enterobacter cloacae beta lactamase
Beta-lactamase, sequence (P05364 whole entry): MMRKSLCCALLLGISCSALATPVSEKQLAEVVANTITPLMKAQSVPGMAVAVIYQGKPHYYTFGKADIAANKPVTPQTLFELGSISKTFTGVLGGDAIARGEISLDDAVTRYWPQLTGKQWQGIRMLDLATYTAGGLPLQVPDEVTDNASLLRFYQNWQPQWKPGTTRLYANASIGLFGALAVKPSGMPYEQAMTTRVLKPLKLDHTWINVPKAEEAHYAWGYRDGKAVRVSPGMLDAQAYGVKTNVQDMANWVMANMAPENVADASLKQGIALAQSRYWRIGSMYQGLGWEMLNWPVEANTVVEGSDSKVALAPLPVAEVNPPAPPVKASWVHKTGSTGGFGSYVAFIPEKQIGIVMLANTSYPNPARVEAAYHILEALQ

[14] = system: Platelet; assay: Antithrombotic activity assessed as inhibition of alpha-thrombin-induced human platelet aggregation; assay type: functional, cell-based
[15] = system: Canis familiaris; assay: Antithrombotic activity in iv dosed dog areteriovenous shunt model assessed as inhibition of thrombus accumulation; assay type: functional; details: Canis lupus familiaris
[16] = Selectivity for human neutrophil elastase over trypsin
[17] = Selectivity for human neutrophil elastase over chymotrypsin
[18] = Selectivity for human neutrophil elastase over cathepsinn G
[19] = molecular target: Complement factor B (Homo sapiens, UniProt P00751); assay: Inhibition of C3 convertase
Complement factor B, sequence (P00751 whole entry): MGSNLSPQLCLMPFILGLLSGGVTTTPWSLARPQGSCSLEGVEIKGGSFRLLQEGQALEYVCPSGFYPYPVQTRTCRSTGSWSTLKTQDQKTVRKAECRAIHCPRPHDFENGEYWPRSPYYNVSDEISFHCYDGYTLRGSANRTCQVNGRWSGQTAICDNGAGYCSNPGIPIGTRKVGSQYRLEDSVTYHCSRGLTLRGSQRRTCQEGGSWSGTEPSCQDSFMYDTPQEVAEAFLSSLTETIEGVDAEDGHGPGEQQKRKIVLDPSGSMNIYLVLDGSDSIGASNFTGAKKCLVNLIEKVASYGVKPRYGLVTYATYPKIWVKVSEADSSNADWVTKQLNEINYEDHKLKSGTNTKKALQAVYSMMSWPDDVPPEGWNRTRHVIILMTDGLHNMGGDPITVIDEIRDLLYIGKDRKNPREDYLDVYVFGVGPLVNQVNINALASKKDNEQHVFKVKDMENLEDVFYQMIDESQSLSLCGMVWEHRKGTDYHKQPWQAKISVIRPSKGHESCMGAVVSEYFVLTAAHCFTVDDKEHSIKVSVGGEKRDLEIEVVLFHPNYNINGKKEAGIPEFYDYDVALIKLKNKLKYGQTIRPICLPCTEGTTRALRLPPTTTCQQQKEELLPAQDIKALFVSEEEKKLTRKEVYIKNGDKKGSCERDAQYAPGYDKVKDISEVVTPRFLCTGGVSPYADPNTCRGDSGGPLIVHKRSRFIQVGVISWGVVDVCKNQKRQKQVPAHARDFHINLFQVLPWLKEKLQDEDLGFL

[20] = system: Trypanosoma brucei rhodesiense; assay: microbe, parasite or virus in culture; details: read-out: ED50
[21] = system: Trypanosoma cruzi; assay: microbe, parasite or virus in culture; details: read-out: ED50
[22] = Inhibition of HCV NS34A protease; set-up: species or system Hepacivirus hominis
[23] = molecular target: Coagulation factor XII (Homo sapiens, UniProt P00748); assay: Inhibition of factor 12a
Coagulation factor XII, sequence (P00748 20-372 limits assumed): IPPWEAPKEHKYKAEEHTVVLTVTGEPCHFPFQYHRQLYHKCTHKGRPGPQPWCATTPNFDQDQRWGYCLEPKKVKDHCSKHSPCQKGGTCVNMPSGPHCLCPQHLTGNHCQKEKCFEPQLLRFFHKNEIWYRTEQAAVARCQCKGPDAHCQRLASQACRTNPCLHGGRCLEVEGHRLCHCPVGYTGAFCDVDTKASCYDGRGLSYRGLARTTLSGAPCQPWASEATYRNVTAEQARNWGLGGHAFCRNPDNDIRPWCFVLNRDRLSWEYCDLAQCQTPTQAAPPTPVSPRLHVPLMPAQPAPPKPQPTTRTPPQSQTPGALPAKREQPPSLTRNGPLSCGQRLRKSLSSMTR
Coagulation factor XII, sequence (P00748 373-615 limits assumed): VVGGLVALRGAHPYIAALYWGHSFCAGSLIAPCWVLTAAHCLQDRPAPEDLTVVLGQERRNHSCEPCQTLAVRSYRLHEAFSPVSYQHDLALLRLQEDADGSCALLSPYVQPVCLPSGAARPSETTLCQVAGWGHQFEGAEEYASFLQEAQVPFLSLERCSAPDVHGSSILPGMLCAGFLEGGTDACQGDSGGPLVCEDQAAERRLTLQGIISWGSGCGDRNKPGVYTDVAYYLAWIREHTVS

[24] = molecular target: Plasma kallikrein (Homo sapiens, UniProt P03952); assay: Inhibition of kallikrein
Plasma kallikrein, sequence (P03952 20-390 limits assumed): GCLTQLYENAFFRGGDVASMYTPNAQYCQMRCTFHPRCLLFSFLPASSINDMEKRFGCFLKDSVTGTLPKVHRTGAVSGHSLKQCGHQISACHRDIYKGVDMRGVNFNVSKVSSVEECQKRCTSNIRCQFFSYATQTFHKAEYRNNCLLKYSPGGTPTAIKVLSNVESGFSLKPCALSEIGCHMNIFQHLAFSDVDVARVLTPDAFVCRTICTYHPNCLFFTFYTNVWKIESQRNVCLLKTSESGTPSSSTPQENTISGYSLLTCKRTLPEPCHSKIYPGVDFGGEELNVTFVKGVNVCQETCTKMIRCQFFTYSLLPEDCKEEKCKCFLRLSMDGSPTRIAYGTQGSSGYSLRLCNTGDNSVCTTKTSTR
Plasma kallikrein, sequence (P03952 391-638 limits assumed): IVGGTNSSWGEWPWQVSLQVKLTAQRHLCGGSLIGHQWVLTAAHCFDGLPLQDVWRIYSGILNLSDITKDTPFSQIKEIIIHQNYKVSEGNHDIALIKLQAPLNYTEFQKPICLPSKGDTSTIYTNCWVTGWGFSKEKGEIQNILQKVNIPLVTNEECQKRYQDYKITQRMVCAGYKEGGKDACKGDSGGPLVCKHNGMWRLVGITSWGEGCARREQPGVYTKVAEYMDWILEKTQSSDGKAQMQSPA

[25] = Inhibition of Trypanosoma cruzi prolyl endopeptidase Tc80
[26] = Selectivity for Porphyromonas gingivalis arginine gingipain over trypsin
[27] = Inhibition of Porphyromonas gingivalis arginine gingipain
[28] = Selectivity for Porphyromonas gingivalis arginine gingipain over cathepsin B
[29] = Selectivity for human beta-tryptase over trypsin
[30] = Inhibition of human beta-tryptase
[31] = Selectivity for human beta-tryptase over uPA
[32] = Selectivity for human beta-tryptase over kallikrein
[33] = Oral bioavailability in rat; assay type: ADME, organism-based; details: in vivo
[34] = species: Homo sapiens; assay: Selectivity for human beta-tryptase over human alpha thrombin
[35] = Selectivity for human beta-tryptase over plasmin
[36] = molecular target: Tissue-type plasminogen activator (Homo sapiens, UniProt P00750); assay: Inhibition of tPA
Tissue-type plasminogen activator, sequence (P00750 whole entry): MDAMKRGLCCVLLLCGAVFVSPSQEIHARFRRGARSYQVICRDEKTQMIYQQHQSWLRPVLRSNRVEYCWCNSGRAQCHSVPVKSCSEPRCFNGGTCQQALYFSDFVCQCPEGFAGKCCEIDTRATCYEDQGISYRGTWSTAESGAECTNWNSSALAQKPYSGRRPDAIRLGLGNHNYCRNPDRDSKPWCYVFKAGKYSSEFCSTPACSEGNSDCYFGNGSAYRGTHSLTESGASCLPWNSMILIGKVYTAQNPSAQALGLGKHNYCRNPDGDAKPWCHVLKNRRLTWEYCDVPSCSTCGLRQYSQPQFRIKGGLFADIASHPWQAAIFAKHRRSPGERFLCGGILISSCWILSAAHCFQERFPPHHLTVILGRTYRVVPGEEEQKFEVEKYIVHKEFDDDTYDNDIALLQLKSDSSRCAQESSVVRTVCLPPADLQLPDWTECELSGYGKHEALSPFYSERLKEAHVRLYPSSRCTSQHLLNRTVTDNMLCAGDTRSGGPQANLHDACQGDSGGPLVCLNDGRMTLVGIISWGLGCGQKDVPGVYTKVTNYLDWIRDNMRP

[37] = molecular target: Plasminogen (Homo sapiens, UniProt P00747); assay: Inhibition of plasmin
[38] = system: PC-3; assay: Growth inhibition of human PC3 cells; assay type: functional, cell-based
[39] = Inhibition of post-glutamyl peptide hydrolase-like activity of human 20S proteasome
[40] = Inhibition of trypsin-like activity of human 20S proteasome
[41] = system: Osteoclast; assay: Inhibition of bovine bone resorption in rabbit osteoclasts; assay type: functional, cell-based; details: Oryctolagus cuniculus
[42] = system: Hamster; assay: Efficacy in po dosed hamster acute lung injury model; assay type: functional; details: Cricetinae
[43] = Oral bioavailability in rat at 3 mg/kg; assay type: ADME, organism-based; details: in vivo
[44] = Tmax in rat at 3 mg/kg, po; assay type: ADME, organism-based; set-up: dose 3 mg/kg, route oral; details: in vivo
[45] = system: Mus musculus; assay: Analgesic activity in iv dosed mouse; assay type: functional
[46] = molecular target: Coagulation factor XI (Homo sapiens, UniProt P03951)
Coagulation factor XI, sequence (P03951 19-387 limits assumed): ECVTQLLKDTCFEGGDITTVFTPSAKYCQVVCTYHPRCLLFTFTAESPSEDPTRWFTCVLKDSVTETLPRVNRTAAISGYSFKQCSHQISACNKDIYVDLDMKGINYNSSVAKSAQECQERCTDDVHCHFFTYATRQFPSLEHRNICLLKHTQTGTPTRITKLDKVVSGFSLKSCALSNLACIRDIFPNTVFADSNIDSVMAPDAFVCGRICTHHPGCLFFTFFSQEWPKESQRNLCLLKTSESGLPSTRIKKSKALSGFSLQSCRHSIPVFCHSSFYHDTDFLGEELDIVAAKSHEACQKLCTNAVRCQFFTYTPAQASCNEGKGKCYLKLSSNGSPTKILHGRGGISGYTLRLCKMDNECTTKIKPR
Coagulation factor XI, sequence (P03951 388-625 limits assumed): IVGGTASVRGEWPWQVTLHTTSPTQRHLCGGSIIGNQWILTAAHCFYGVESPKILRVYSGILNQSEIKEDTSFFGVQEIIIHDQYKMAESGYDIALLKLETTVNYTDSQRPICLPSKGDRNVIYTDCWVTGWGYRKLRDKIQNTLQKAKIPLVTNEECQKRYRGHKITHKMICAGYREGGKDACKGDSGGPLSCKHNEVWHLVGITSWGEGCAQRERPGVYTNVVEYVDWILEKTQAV

[47] = Selectivity for human chymase over cathepsin G
[48] = Selectivity for human chymase over bovine chymotrypsin
[49] = molecular target: Chymase (Homo sapiens, UniProt P23946)
Chymase, sequence (P23946 whole entry): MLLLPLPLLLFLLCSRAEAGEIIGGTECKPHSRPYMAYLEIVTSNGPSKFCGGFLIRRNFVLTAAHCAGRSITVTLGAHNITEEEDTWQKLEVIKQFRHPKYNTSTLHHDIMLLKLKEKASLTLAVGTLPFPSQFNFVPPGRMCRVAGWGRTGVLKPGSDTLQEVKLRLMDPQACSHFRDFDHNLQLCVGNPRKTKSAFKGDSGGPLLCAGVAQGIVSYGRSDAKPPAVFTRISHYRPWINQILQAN

SMILES: O=C(N[C@H](C(=O)c1nc2ccccc2o1)C1CC1)O[C@@H](CC1CCCCC1)C(=O)N1CCOCC1
- Selectivity ratio [1]: > 100
- Selectivity ratio [2]: > 100
- Selectivity ratio [3]: > 100

SMILES: CSCCC(N)C(=O)c1nccs1 (racemic)
- IC50 [4]: 19000 nM

SMILES: N=C(N)N1CCC[C@@H](C[C@H](NC(=O)CN2C(=O)CN(CCCc3ccccc3)C(=O)[C@@H]2Cc2ccccc2)C(=O)c2nccs2)C1
- inhibition [5]: 80%

SMILES: CC[C@H](C)[C@H](NC(=O)[C@@H](Cc1ccccc1)NS(=O)(=O)Cc1ccccc1)C(=O)N[C@@H](CCCN=C(N)N)C(=O)c1nccs1
- IC50 [6]: 19000 nM
- IC50 [7]: 380 nM
- IC50 [8]: 300 nM

SMILES: CC(C)(C)c1nnc(C(=O)[C@@H]2CCCN2)o1
- Ki [9]: 500 nM

SMILES: Nc1nc(N)c(CCCCCC(=O)c2nc3ccccc3o2)c(=O)[nH]1
- Ki [10]: 15000 nM
- Ki [11]: > 100000 nM
- Ki [12]: > 100000 nM

SMILES: O=C(Cc1ccccc1)NCC(=O)c1nc(C(=O)O)cs1
- Ki [13]: 110000 nM

SMILES: CN[C@H](Cc1ccccc1)C(=O)N1CCC[C@H]1C(=O)N[C@@H](CCCNC(=N)N)C(=O)c1nc2ccc(C(=O)O)cc2s1
- IC50 [14]: 30 nM
- ED50 [15]: 0.1 mg/kg

SMILES: Cc1cccc(Cc2nnc(C(=O)[C@@H](NC(=O)[C@@H]3CCCN3C(=O)[C@@H](NC(=O)OCc3ccccc3)C(C)C)C(C)C)o2)c1
- Selectivity ratio [16]: > 1000
- Selectivity ratio [17]: > 1000
- Selectivity ratio [18]: > 1000

SMILES: CC[C@H](C)[C@H](N)C(=O)N[C@H]1CSSC[C@@H](C(=O)N[C@H](C(N)=O)[C@@H](C)O)NC(=O)[C@H](CCCN=C(N)N)NC(=O)[C@H](Cc2cnc[nH]2)NC(=O)[C@H](Cc2cnc[nH]2)NC(=O)CNC(=O)[C@H](Cc2c[nH]c3ccccc23)NC(=O)[C@H](CC(=O)O)NC(=O)[C@H](CCC(N)=O)NC(=O)[C@H](C(C)C)NC(=O)[C@H](C(C)C)NC1=O [COMPSTATIN]
- IC50 [19]: 3400 nM

SMILES: O=C(c1cc(-c2ccccc2)on1)[C@@H]1CCCN1C(=O)[C@@H]1CCCN1C(=O)OCc1ccccc1
- EC50 [20]: 2200 µg/mL (≈ 4.65 mM)
- EC50 [21]: 6700 µg/mL (≈ 14.1 mM)

SMILES: CC[C@@H](C=O)NC(=O)[C@@H]1C[C@@H](OCc2ccccc2)CN1C(=O)[C@@H](NC(=O)[C@@H](NC(=O)c1cnccn1)C(C)C)C(C)C (Pyrazinecarbonyl-VV[Hyp](Bn)[Abu]-aldehyde)
- Ki [22]: 16000 nM

SMILES: NC(N)=NCCC[C@H](NC(=O)CNC(=O)[C@@H](CCCN=C(N)N)NS(=O)(=O)Cc1ccccc1)C(=O)c1nccs1
- IC50 [23]: 50 nM
- IC50 [24]: 14 nM

SMILES: O=C(C1=NOC(COCc2ccccc2)C1)[C@@H]1CCCN1C(=O)[C@@H]1CCCN1C(=O)OCc1ccccc1 (some centres not stated)
- Ki [25]: 1.2 nM

SMILES: NCCCC[C@H](NC(=O)C1CCCN(C(=O)CCc2ccccc2)C1)C(=O)c1nc2ccccc2s1 (some centres not stated)
- Selectivity ratio [26]: 30
- Ki [27]: 0.9 nM
- Selectivity ratio [28]: 120000

SMILES: CCOC(=O)N[C@@H](CCCCN)C(=O)c1noc(Cc2ccc(OCCc3ccccc3)cc2)n1
- Selectivity ratio [29]: 35
- Ki [30]: 5 nM
- Selectivity ratio [31]: > 1000
- Selectivity ratio [32]: > 1000
- bioavailability [33]: 8%
- Selectivity ratio [34]: > 1000
- Selectivity ratio [35]: 80

SMILES: CC[C@H](NC(=O)[C@@H]1C[C@@H](OCc2ccccc2)CN1C(=O)[C@@H](NC(=O)[C@@H](NC(=O)c1cnccn1)C(C)C)C(C)C)C(=O)c1nnc(-c2ccccc2)o1
- Ki [22]: 35000 nM

SMILES: NC(N)=NCCC[C@H](NC(=O)CNC(=O)[C@@H](CCCN=C(N)N)NS(=O)(=O)CCc1ccccc1)C(=O)c1nc2ccccc2o1
- IC50 [36]: 29 nM
- IC50 [7]: 2 nM
- IC50 [37]: 36 nM
- IC50 [24]: 13 nM

SMILES: Cc1ccc(S(=O)(=O)N[C@@H](CC(=O)NCC(C)(C)C)C(=O)N[C@@H](C)C(=O)N[C@@H](CC(C)C)C(=O)c2nnc(-c3ccccc3)o2)cc1
- IC50 [38]: 200 nM
- Ki [39]: > 900000 nM
- Ki [40]: > 300000 nM

SMILES: CC(C)C[C@H](NC(=O)OCc1ccccc1)C(=O)NCC(=O)N1CCC[C@H]1C(=O)c1nc2ccccc2s1
- IC50 [25]: 200 nM

SMILES: CCC[C@H](NC(=O)C1(NC(=O)c2ccc(N(C)C)cc2)CCCCC1)C(=O)c1nnc(-c2ccco2)o1
- IC50 [41]: 130 nM

SMILES: CC(C)C(NC(=O)Cn1c(-c2ccccc2)ncc(N)c1=O)C(=O)c1nnc(C(C)(C)C)o1 (racemic)
- ED50 [42]: 5.1 mg/kg
- bioavailability [43]: 50%
- Tmax [44]: 36 min

SMILES: O=C(CCCCCCc1ccccc1)c1ncc(-c2ccccn2)o1
- ED50 [45]: 1.9 mg/kg

SMILES: CC(C)[C@H](NC(=O)[C@H](CC1CCCCC1)NC(=O)N[C@H](C)c1ccc(Br)cc1)C(=O)N[C@@H](CCCNC(=N)N)C(=O)c1nccs1
- IC50 [6]: 980 nM
- IC50 [7]: 2700 nM
- IC50 [46]: 10 nM

SMILES: CSCCC(N)C(=O)c1ccccn1 (racemic)
- IC50 [4]: 16000 nM

SMILES: COC(=O)c1ccc2oc(C(=O)[C@H](Cc3ccccc3)NC(=O)Cn3c(-c4cccc(OC)c4)ncc(N)c3=O)nc2c1
- Selectivity ratio [47]: 80
- bioavailability [33]: 20%
- Selectivity ratio [48]: 200
- Ki [49]: 4.8 nM
